# What was measured:
# Bacillus subtilis [1] = experiment: Growth inhibition of Bacillus subtilis NCIM 2162 at 1 ug/ml measured after 12 hrs relative to control; assay type: functional; conditions: NCIM 2162, 12 h, read-out: GI
# [2] = Selectivity index, ratio of GI50 for human HeLa cells to MIC for Mycobacterium bovis BCG ATCC 35743 dormant stage; assay type: toxicity, cell-based; conditions: read-out: Selectivity Index
# Staphylococcus aureus [3] = experiment: Growth inhibition of Staphylococcus aureus NCIM 2602 at 30 ug/ml measured after 12 hrs relative to control; assay type: functional; conditions: NCIM 2602, 12 h, read-out: GI
# [4] = tested on: Mycobacterium tuberculosis; experiment: Growth inhibition of Mycobacterium tuberculosis H37Ra ATCC 25177 at 10 ug/ml by XTT dye based two-fold dilution method relative to control; assay type: functional; conditions: read-out: GI
# Pseudomonas fluorescens [5] = experiment: Growth inhibition of Pseudomonas fluorescens NCIM 2059 at 1 ug/ml measured after 8 hrs relative to control; assay type: functional; conditions: NCIM 2059, 8 h, read-out: GI
# Bacillus subtilis [6] = experiment: Growth inhibition of Bacillus subtilis NCIM 2162 at 10 ug/ml measured after 12 hrs relative to control; assay type: functional; conditions: NCIM 2162, 12 h, read-out: GI
# [7] = (§1) Growth inhibition of human PANC1 cells by MTT assay; assay type: cell-based, PANC-1; conditions: PANC-1 cells
# PANC-1 = experiment: as §1; assay type: cell-based; conditions: panc-1
# [8] = tested on: Mycobacterium tuberculosis; experiment: Growth inhibition of Mycobacterium bovis BCG ATCC 35743 at 30 ug/ml by nitrate reductase based two-fold dilution assay relative to control; assay type: functional; conditions: BCG str. ATCC 35743, read-out: GI
# [9] = Selectivity index, ratio of GI50 for human A549 cells to MIC for Mycobacterium bovis BCG ATCC 35743 dormant stage; assay type: toxicity; conditions: read-out: Selectivity Index
# Pseudomonas fluorescens [10] = experiment: Growth inhibition of Pseudomonas fluorescens NCIM 2059 at 10 ug/ml measured after 8 hrs relative to control; assay type: functional; conditions: NCIM 2059, 8 h, read-out: GI
# Staphylococcus aureus [11] = experiment: Growth inhibition of Staphylococcus aureus NCIM 2602 at 1 ug/ml measured after 12 hrs relative to control; assay type: functional; conditions: NCIM 2602, 12 h, read-out: GI
# Escherichia coli [12] = experiment: Growth inhibition of Escherichia coli NCIM 2576 at 10 ug/ml measured after 8 hrs relative to control; assay type: functional; conditions: NCIM 2576, 8 h, read-out: GI
# A549 = experiment: (§2) Growth inhibition of human A549 cells by MTT assay; assay type: cell-based; conditions: a549
# [13] = as §2; assay type: cell-based; conditions: A549 cells
# Pseudomonas fluorescens [14] = experiment: Antibacterial activity against Pseudomonas fluorescens NCIM 2059 measured after 8 hrs; assay type: functional; conditions: NCIM 2059, 8 h
# [15] = tested on: Mycobacterium tuberculosis; experiment: Antitubercular activity against Mycobacterium tuberculosis H37Ra ATCC 25177 dormant stage by XTT dye based two-fold dilution method; assay type: functional
# [16] = tested on: Mycobacterium tuberculosis; experiment: Antitubercular activity against Mycobacterium bovis BCG ATCC 35743 dormant stage by nitrate reductase based two-fold dilution assay; assay type: functional; conditions: BCG str. ATCC 35743
# [17] = Selectivity index, ratio of GI50 for human PANC1 cells to MIC for Mycobacterium bovis BCG ATCC 35743 dormant stage; assay type: toxicity; conditions: PANC-1 cells, read-out: Selectivity Index
# [18] = Selectivity index, ratio of GI50 for human A549 cells to MIC for Mycobacterium tuberculosis H37Ra ATCC 25177 dormant stage; assay type: toxicity; conditions: read-out: Selectivity Index
# [19] = Selectivity index, ratio of GI50 for human PANC1 cells to MIC for Mycobacterium tuberculosis H37Ra ATCC 25177 dormant stage; assay type: toxicity; conditions: PANC-1 cells, read-out: Selectivity Index
# Escherichia coli [20] = experiment: Antibacterial activity against Escherichia coli NCIM 2576 measured after 8 hrs; assay type: functional; conditions: NCIM 2576, 8 h
# Bacillus subtilis [21] = experiment: Growth inhibition of Bacillus subtilis NCIM 2162 at 30 ug/ml measured after 12 hrs relative to control; assay type: functional; conditions: NCIM 2162, 12 h, read-out: GI
# Pseudomonas fluorescens [22] = experiment: Growth inhibition of Pseudomonas fluorescens NCIM 2059 at 30 ug/ml measured after 8 hrs relative to control; assay type: functional; conditions: NCIM 2059, 8 h, read-out: GI
# [23] = tested on: Mycobacterium tuberculosis; experiment: Growth inhibition of Mycobacterium bovis BCG ATCC 35743 at 10 ug/ml by nitrate reductase based two-fold dilution assay relative to control; assay type: functional; conditions: BCG str. ATCC 35743, read-out: GI
# Staphylococcus aureus [24] = experiment: Growth inhibition of Staphylococcus aureus NCIM 2602 at 10 ug/ml measured after 12 hrs relative to control; assay type: functional; conditions: NCIM 2602, 12 h, read-out: GI
# Staphylococcus aureus [25] = experiment: Antibacterial activity against Staphylococcus aureus NCIM 2602 measured after 12 hrs; assay type: functional; conditions: NCIM 2602, 12 h
# Escherichia coli [26] = experiment: Growth inhibition of Escherichia coli NCIM 2576 at 30 ug/ml measured after 8 hrs relative to control; assay type: functional; conditions: NCIM 2576, 8 h, read-out: GI
# Bacillus subtilis [27] = experiment: Antibacterial activity against Bacillus subtilis NCIM 2162 measured after 12 hrs; assay type: functional; conditions: NCIM 2162, 12 h
# [28] = Selectivity index, ratio of GI50 for human HeLa cells to MIC for Mycobacterium tuberculosis H37Ra ATCC 25177 dormant stage; assay type: toxicity, cell-based; conditions: read-out: Selectivity Index
# Escherichia coli [29] = experiment: Growth inhibition of Escherichia coli NCIM 2576 at 1 ug/ml measured after 8 hrs relative to control; assay type: functional; conditions: NCIM 2576, 8 h, read-out: GI
# [30] = tested on: Mycobacterium tuberculosis; experiment: Growth inhibition of Mycobacterium tuberculosis H37Ra ATCC 25177 at 3 ug/ml by XTT dye based two-fold dilution method relative to control; assay type: functional; conditions: read-out: GI
# HeLa = experiment: (§3) Growth inhibition of human HeLa cells by MTT assay; assay type: cell-based; conditions: hela
# [31] = as §3; assay type: cell-based; conditions: HeLa cells
# [32] = tested on: Mycobacterium tuberculosis; experiment: Growth inhibition of Mycobacterium tuberculosis H37Ra ATCC 25177 at 30 ug/ml by XTT dye based two-fold dilution method relative to control; assay type: functional; conditions: read-out: GI
# [33] = tested on: Mycobacterium tuberculosis; experiment: Growth inhibition of Mycobacterium bovis BCG ATCC 35743 at 1 ug/ml by nitrate reductase based two-fold dilution assay relative to control; assay type: functional; conditions: BCG str. ATCC 35743, read-out: GI
SMILES,inhibition of growth at 1 µg/mL (Bacillus subtilis [1]) [%],selectivity ratio [2],inhibition of growth at 30 µg/mL (Staphylococcus aureus [3]) [%],inhibition of growth at 10 µg/mL [4] [%],inhibition of growth at 1 µg/mL (Pseudomonas fluorescens [5]) [%],inhibition of growth at 10 µg/mL (Bacillus subtilis [6]) [%],GI50 [7] [µg/mL],GI90 (PANC-1) [µg/mL],inhibition of growth at 30 µg/mL [8] [%],selectivity ratio [9],inhibition of growth at 10 µg/mL (Pseudomonas fluorescens [10]) [%],inhibition of growth at 1 µg/mL (Staphylococcus aureus [11]) [%],inhibition of growth at 10 µg/mL (Escherichia coli [12]) [%],GI90 (A549) [µg/mL],GI50 [13] [µg/mL],MIC (Pseudomonas fluorescens [14]),IC50 [15] [nM],MIC90 [15] [µM],IC50 [16] [nM],MIC90 [16] [µM],other results
Cc1nc(-c2ccccc2)oc1-c1csc(Cc2cccc(Cl)c2)n1,80.3,50,92.2,97,79.3,86.8,> 250,> 250,95,181,82.7,73.2,88.7,> 250,> 250,20.9 µg/mL,230,3.49,760,3.76,selectivity ratio [17]: 181; selectivity ratio [18]: 195; selectivity ratio [19]: 195; MIC (Escherichia coli [20]): 15.4 µg/mL; inhibition of growth at 30 µg/mL (Bacillus subtilis [21]): 92%; inhibition of growth at 30 µg/mL (Pseudomonas fluorescens [22]): 95.8%; inhibition of growth at 10 µg/mL [23]: 94%; inhibition of growth at 10 µg/mL (Staphylococcus aureus [24]): 81.3%; MIC (Staphylococcus aureus [25]): 25.6 µg/mL; inhibition of growth at 30 µg/mL (Escherichia coli [26]): 95.9%; MIC (Bacillus subtilis [27]): 21.7 µg/mL; selectivity ratio [28]: 54; inhibition of growth at 1 µg/mL (Escherichia coli [29]): 74.7%; inhibition of growth at 3 µg/mL [30]: 96%; GI90 (HeLa): > 250 µg/mL; GI50 [31]: 68.7 µg/mL; inhibition of growth at 30 µg/mL [32]: 98%; inhibition of growth at 1 µg/mL [33]: 94%
Cc1nc(-c2ccc(F)cc2)oc1-c1csc(Cc2ccccc2)n1,91.2,58,98.5,94,87,95.8,> 250,> 250,97,97,92.4,93.9,90.3,> 250,> 250,19.1 µM,490,6.2,540,7.33,selectivity ratio [17]: 97; selectivity ratio [18]: 115; selectivity ratio [19]: 115; MIC (Escherichia coli [20]): 20.6 µM; inhibition of growth at 30 µg/mL (Bacillus subtilis [21]): 99.9%; inhibition of growth at 30 µg/mL (Pseudomonas fluorescens [22]): 99.6%; inhibition of growth at 10 µg/mL [23]: 96%; inhibition of growth at 10 µg/mL (Staphylococcus aureus [24]): 95.9%; MIC (Staphylococcus aureus [25]): 6.85 µM; inhibition of growth at 30 µg/mL (Escherichia coli [26]): 94%; MIC (Bacillus subtilis [27]): 5.99 µM; selectivity ratio [28]: 68; inhibition of growth at 1 µg/mL (Escherichia coli [29]): 88.8%; inhibition of growth at 3 µg/mL [30]: 95%; GI90 (HeLa): 248.63 µg/mL; GI50 [31]: 148 µg/mL; inhibition of growth at 30 µg/mL [32]: 99%; inhibition of growth at 1 µg/mL [33]: 97%
Cc1nc(-c2ccc(F)cc2)oc1-c1csc(Cc2ccc(F)cc2)n1,83.5,146,94.1,93,78.6,88.2,> 250,> 250,96,385,83.2,80,85.2,> 250,> 250,54.8 µM,180,1.74,190,1.76,selectivity ratio [17]: 385; selectivity ratio [18]: 391; selectivity ratio [19]: 391; MIC (Escherichia coli [20]): 60.3 µM; inhibition of growth at 30 µg/mL (Bacillus subtilis [21]): 96.7%; inhibition of growth at 30 µg/mL (Pseudomonas fluorescens [22]): 95.9%; inhibition of growth at 10 µg/mL [23]: 95%; inhibition of growth at 10 µg/mL (Staphylococcus aureus [24]): 82.1%; MIC (Staphylococcus aureus [25]): 62.7 µM; inhibition of growth at 30 µg/mL (Escherichia coli [26]): 94.8%; MIC (Bacillus subtilis [27]): 39.1 µM; selectivity ratio [28]: 148; inhibition of growth at 1 µg/mL (Escherichia coli [29]): 72.2%; inhibition of growth at 3 µg/mL [30]: 91%; GI90 (HeLa): > 250 µg/mL; GI50 [31]: 94.9 µg/mL; inhibition of growth at 30 µg/mL [32]: 93%; inhibition of growth at 1 µg/mL [33]: 93%
